Laboratory results: article PMC12736194, “1-Azinyl-1′-Alkenylferrocenes with Anticholinesterase, Antioxidant, and Antiaggregating Activities as Multifunctional Agents for Potential Treatment of Alzheimer’s Disease” (Pharmaceuticals, 2025)

What was measured:
[1] = test system: human neuroblastoma cell cultures (SH-SY5Y); experiment: Cytotoxicity, MTT test, SH-SY5Y; settings: read-out: Cytotoxic activity, LC50, SH-SY5Y, 24 h, 1 to 1024 μM, mean ± SE, n = 3
Method: (§1) Cytotoxic activity was assessed using the MTT test. […] For each compound, the half-lethal concentration parameter LC50 (μM) was calculated.
(§2) This study employed SH-SY5Y neuroblastoma cells and dental pulp-derived mesenchymal stem cells (MSC-DP). Cells were cultured in DMEM/F12 with 10% (v/v) FBS under standard conditions. MSC-DP were reprogrammed into neuronal-like cells (MSC-Neu) using Neurobasal medium with addition of Neuromax and 3% (v/v) FBS for 5 days.
(§3) The cytotoxic effect of Fcs was assessed using the Mossman test for cellular dehydrogenase activity (MTT test). […] For each compound, the half-lethal concentration parameter (LC50) in μM was calculated as described previously.

[2] = target: T1, peripheral anionic site (PAS) of Electrophorus electricus AChE (EeAChE) (Electrophorus electricus, UniProt O42275); experiment: Propidium displacement from the EeAChE PAS (fluorescence); assay type: binding; settings: compound concentration 20 µM; EeAChE 7 μM, propidium iodide 8 μM, Tris-HCl pH 8.0; n.a. = not active
T1 construct: purchased Sigma-Aldrich type VI-S
T1 sequence (O42275 24-633): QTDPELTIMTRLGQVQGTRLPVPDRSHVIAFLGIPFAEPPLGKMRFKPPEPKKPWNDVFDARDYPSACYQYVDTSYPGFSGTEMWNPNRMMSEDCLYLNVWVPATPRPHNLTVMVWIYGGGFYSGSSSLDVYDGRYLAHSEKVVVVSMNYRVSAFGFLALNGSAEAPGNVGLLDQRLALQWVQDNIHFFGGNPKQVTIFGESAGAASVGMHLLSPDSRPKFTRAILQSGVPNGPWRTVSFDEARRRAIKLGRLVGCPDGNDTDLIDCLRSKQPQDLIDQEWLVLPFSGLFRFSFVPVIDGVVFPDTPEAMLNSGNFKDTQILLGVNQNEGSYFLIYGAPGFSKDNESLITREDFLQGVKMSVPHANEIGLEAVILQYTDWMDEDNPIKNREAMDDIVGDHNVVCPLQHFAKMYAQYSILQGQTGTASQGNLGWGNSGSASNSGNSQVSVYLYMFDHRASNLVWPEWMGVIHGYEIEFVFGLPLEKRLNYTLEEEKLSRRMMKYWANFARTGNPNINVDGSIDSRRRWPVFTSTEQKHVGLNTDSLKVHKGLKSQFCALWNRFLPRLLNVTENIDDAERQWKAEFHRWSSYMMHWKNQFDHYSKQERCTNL
Method: A fluorescence-based assay assessed the ability of test compounds to competitively displace propidium iodide from AChE’s PAS [65, 93]. […] EeAChE (7 μM) was incubated with 20 μM test compounds in Tris-HCl buffer (pH 8.0) for 15 min, followed by addition of propidium iodide (8 μM) as described in detail in [95]. Fluorescence readings (530 nm excitation, 600 nm emission) were obtained using a FLUOStar Optima microplate reader (LabTech, Ortenberg, Germany). Displacement (%) was calculated.

[3] = Ferric reducing antioxidant power (FRAP) assay; settings: Trolox equivalents; acetate buffer pH 3.6, 1 h, 37 °C
[4] = target: T2, human (Homo sapiens) erythrocyte AChE (HsAChE) (Homo sapiens, UniProt P22303); experiment: Inhibition of HsAChE (spectrophotometric, ATCh iodide substrate); assay type: biochemical; settings: K/Na-phosphate buffer pH 7.5, 25 °C; mean ± SEM, n = 3
T2 construct: human (Homo sapiens) erythrocyte AChE (HsAChE); purchased Sigma-Aldrich; host or cells: human erythrocytes
T2 sequence (P22303 32-617 isoform P22303-2 limits assumed): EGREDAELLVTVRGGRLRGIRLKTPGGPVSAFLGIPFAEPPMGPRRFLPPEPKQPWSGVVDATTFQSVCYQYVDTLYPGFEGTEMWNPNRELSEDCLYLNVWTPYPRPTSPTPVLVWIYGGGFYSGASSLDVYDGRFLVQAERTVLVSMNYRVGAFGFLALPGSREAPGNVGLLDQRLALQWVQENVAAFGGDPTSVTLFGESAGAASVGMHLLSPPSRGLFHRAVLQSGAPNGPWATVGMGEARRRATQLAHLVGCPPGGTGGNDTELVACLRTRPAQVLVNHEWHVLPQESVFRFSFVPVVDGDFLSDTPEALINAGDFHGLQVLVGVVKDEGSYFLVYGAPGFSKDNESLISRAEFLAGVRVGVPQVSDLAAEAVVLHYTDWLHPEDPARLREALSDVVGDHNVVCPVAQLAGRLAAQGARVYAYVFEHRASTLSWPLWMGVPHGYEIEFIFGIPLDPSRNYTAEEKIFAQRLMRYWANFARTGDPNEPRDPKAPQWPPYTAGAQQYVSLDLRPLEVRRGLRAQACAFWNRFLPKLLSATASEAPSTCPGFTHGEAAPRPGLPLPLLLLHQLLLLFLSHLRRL
Method: (§4) In these experiments, human (Homo sapiens) erythrocyte AChE (HsAChE), equine (Equus caballus) serum BChE (EcBChE), and porcine (Sus scrofa) liver CES (SsCES) were used because of their ready availability, relatively low cost, and high sequence homology of EcBChE and SsCES to the corresponding human enzymes.
(§5) Enzymes, substrates, and reference compounds were sourced from Sigma-Aldrich (St. Louis, MO, USA). Enzyme activity was measured spectrophotometrically according to [91] using ATCh iodide, BTCh iodide, and 4-NPA as substrates for HsAChE, EcBChE, and SsCES, respectively. Experimental conditions included a K/Na-phosphate buffer (100 mM), at 25 °C, with pH 7.5 for AChE and BChE assays, and pH 8.0 for CES assays. Measurements were conducted on a BioRad Benchmark Plus microplate spectrophotometer (Hercules, CA, USA). Test compounds were dissolved in DMSO with a final solvent concentration of 2% (v/v) in the incubation mixture.

[5] = test system: porcine (Sus scrofa) liver CES (SsCES); experiment: Inhibition of SsCES (spectrophotometric, 4-NPA substrate); assay type: biochemical; settings: compound 20 μM; n.a. = not active; mean ± SEM, n = 3
Source text: as §4
Although the dominant carboxylesterase in porcine liver is CES1 [64], the preparation sourced from Sigma-Aldrich is not a purified or recombinant CES1. Therefore, we have designated the preparation used in our experimental studies as SsCES. However, in computational molecular docking studies, it is necessary to choose a single defined protein as the docking target. Thus, the logical choice for our computational studies of CES was the most abundant and best characterized isoform found in porcine liver, which is SsCES1.
as §5

[6] = ABTS radical cation scavenging activity assay; settings: ethanol, 1 h; for IC50: ABTS^•+ 100 μM; for ABTS^•+-Scavenging Activity, TEAC: Trolox equivalent antioxidant capacity, mean ± SEM, n = 3
[7] = target: T3, equine (Equus caballus) serum BChE (EcBChE) (Equus caballus, UniProt P81908); experiment: Inhibition of EcBChE (spectrophotometric, BTCh iodide substrate); assay type: biochemical; settings: K/Na-phosphate buffer pH 7.5, 25 °C; mean ± SEM, n = 3
T3 construct: equine (Equus caballus) serum BChE (EcBChE); purchased Sigma-Aldrich; host or cells: horse serum
T3 sequence (P81908 whole entry): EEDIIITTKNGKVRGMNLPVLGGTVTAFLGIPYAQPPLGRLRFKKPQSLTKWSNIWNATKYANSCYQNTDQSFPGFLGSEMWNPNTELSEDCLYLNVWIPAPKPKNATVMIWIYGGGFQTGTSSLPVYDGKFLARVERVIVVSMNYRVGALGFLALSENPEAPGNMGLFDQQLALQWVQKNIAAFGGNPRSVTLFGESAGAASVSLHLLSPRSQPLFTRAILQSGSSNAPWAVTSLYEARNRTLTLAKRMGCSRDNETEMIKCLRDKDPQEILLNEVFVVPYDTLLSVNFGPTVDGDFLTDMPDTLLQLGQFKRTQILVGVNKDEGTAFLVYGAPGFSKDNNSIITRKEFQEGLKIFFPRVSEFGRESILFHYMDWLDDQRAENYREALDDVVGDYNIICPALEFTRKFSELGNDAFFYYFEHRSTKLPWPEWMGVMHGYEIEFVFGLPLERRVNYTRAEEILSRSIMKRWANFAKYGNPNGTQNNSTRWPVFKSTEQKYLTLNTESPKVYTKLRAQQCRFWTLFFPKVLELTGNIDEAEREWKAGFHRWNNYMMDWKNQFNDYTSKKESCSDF
Method: as §4, §5

[8] = target: T4, human β-amyloid (1–42) (HsAβ42) (Homo sapiens, UniProt P05067); experiment: Inhibition of HsAβ42 self-aggregation (thioflavin T fluorescence); assay type: biochemical; settings: HsAβ42 50 µM, compound 100 µM, 24 h, 37 °C; n.a. = not active
T4 construct: purchased AnaSpec Inc
T4 sequence (P05067 672-713 limits assumed): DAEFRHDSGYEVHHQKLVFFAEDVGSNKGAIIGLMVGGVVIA
Method: The potential of compounds from all three groups (1a-e, 5a-e, 7a-d) to inhibit HsAβ42 self-aggregation was evaluated using a Thioflavin T (ThT) fluorescence assay.
Inhibition of HsAβ42 self-aggregation by test compounds was studied using the thioflavin T (ThT) fluorescence method with minor modifications as described in detail in [79]. Lyophilized HFIP-pretreated HsAβ42 (AnaSpec Inc., Fremont, CA, USA, 0.5 mg) was dissolved in DMSO to obtain a stable 500 μM solution. The samples of 50 μM HsAβ42 in 215 mM Na-phosphate buffer pH 8.0 were incubated for 24 h at 37 °C in the absence or presence of 100 μM test compounds. Myricetin in the same concentration was used as a reference. After incubation, 5 μM ThT in 50 mM glycine-NaOH buffer pH 8.5 was added, and the fluorescence was measured at 440 nm (exc.) and 485 nm (emis.) with a FLUOStar Optima microplate reader. Blanks consisted of 215 mM Na-phosphate buffer, pH 8.0, 20% (v/v) DMSO or test compounds, respectively. The inhibition (%) of HsAβ42 self-aggregation by the test compounds was calculated.

[9] = test system: reprogrammed human neuronal cell cultures (MSC-Neu); experiment: Cytotoxicity, MTT test, MSC-Neu; settings: read-out: Cytotoxic activity, LC50, MSC-Neu, 24 h, 1 to 1024 μM, mean ± SE, n = 3
Method: as §1, §2, §3

MCF7 cell line = settings: Figure 12; read-out: LC50, MCF7 cell line; cited from earlier work
[10] = cited from earlier work
HsAChE = target: T5, HsAChE (Homo sapiens, UniProt P22303); experiment: Kinetic study of HsAChE inhibition (Lineweaver-Burk); assay type: biochemical
T5 construct: human (Homo sapiens) erythrocyte AChE (HsAChE); purchased Sigma-Aldrich; host or cells: human erythrocytes
T5 sequence (P22303 32-617 isoform P22303-2 limits assumed): as the sequence (P22303 32-617 isoform P22303-2 limits assumed) above
Method: (§6) . To determine the relationship between enzyme activity and inhibitor concentration at different substrate levels, we conducted kinetic assays. The kinetic data analysis, using Lineweaver–Burk plots, is shown in Figure 2A and Figure 2B for HsAChE and EcBChE, respectively.
(§7) To investigate the mechanisms of HsAChE and EcBChE inhibition, enzyme kinetics were analyzed (detailed in [92]). After a 5 min equilibration at 25 °C with three different inhibitor concentrations and six substrate concentrations, residual enzyme activity was measured as described. Lineweaver–Burk plots (1/V vs. 1/[S]) were used to determine competitive (Ki) and non-competitive (αKi) inhibition constants.

EcBChE = target: T6, EcBChE (Equus caballus, UniProt P81908); experiment: Kinetic study of EcBChE inhibition (Lineweaver-Burk); assay type: biochemical
T6 construct: equine (Equus caballus) serum BChE (EcBChE); purchased Sigma-Aldrich; host or cells: horse serum
T6 sequence (P81908 whole entry): as the sequence (P81908 whole entry) above
Method: as §6, §7

Structure (SMILES) | CC50 [1] | Propidium Displacement, (%) [2] | Ferric Reducing Antioxidant Power, TE [3] | IC50 [4] | Inhibition of SsCES, % inhibition at 20 μM [5] | IC50 [6] | ABTS^•+-Scavenging Activity, TEAC [6] | IC50 [7] | HsAβ42 self-Aggregation Inhibition, (%) [8] | CC50 [9] | CC50 (MCF7 cell line) | Experimental pKa [10] | noncompetitive component of inhibition constant (αKi), HsAChE (HsAChE) | type of inhibition, HsAChE (HsAChE; Vmax and Km both change) | Ki (HsAChE; read-out: competitive component of inhibition constant (Ki), HsAChE) | noncompetitive component of inhibition constant (αKi), EcBChE (EcBChE) | type of inhibition, EcBChE (EcBChE; Vmax and Km both change) | Ki (EcBChE; read-out: competitive component of inhibition constant (Ki), EcBChE)
C=C[c-]1cccc1.[Fe+2].c1ccc(-c2cccc(-[c-]3cccc3)n2)nc1 [7d, 1-(2,2′-Bipyridin-6-yl)-1′-Vinylferrocene] | 158 ± 19.8 µM | 9.7 ± 0.6% | 1.93 ± 0.06 | 6.34 ± 0.51 µM | 5.8 ± 1.3% | 15.6 ± 0.7 µM | 1.36 ± 0.06 | 7.94 ± 0.55 µM | 81.5 ± 4.9% | 299 ± 21.9 µM | – | – | – | – | – | – | – | –
C=C(C)[c-]1cccc1.[Fe+2].c1ccc(-c2cccc(-[c-]3cccc3)n2)nc1 [5d] | 189 ± 19.3 µM | 8.2 ± 0.6% | 1.47 ± 0.06 | 5.12 ± 0.41 µM | – | 20.8 ± 0.1 µM | 0.94 ± 0.05 | 4.86 ± 0.39 µM | 83.8 ± 4.2% | 414 ± 18.6 µM | – | – | – | – | – | – | – | –
[Fe+2].c1cc[cH-]c1.c1ccc2nc(-[c-]3cccc3)ccc2c1 [1b] | 243 ± 27.4 µM | 10.2 ± 0.8% | 2.21 ± 0.01 | 68.1 ± 3.4 µM | 29.8 ± 2.0% | 6.6 ± 0.3 µM | 4.2 ± 0.2 | 2.7 ± 0.19 µM | 79.5 ± 6.3% | 393 ± 13.2 µM | – | – | – | – | – | – | – | –
CC(=C(c1ccc(O)cc1)c1ccc(O)cc1)[c-]1cccc1.[Fe+2].c1cc[cH-]c1 [compound 10, 1,1-bis(4-hydroxyphenyl)-2-ferrocenylprop-1-ene, reference compound] | 43.4 ± 6.7 µM | – | – | – | – | – | – | – | – | 104 ± 12.3 µM | 18.1 ± 2.1 µM | – | – | – | – | – | – | –
C=C(C)[c-]1cccc1.[Fe+2].c1ccc2nc(-[c-]3cccc3)ccc2c1 [5b] | 281 ± 30.1 µM | 11.5 ± 0.8% | 3.13 ± 0.17 | 4.01 ± 0.28 µM | 35.4 ± 2.8% | 5.6 ± 0.3 µM | 4.3 ± 0.2 | 9.91 ± 0.69 µM | 82.9 ± 6.6% | 564 ± 31.8 µM | – | – | – | – | – | – | – | –
c1ccc(-c2ccccn2)nc1 [Bipyridine] | – | – | – | – | – | – | – | – | – | – | – | 4.35 | – | – | – | – | – | –
C=C[c-]1cccc1.[Fe+2].c1ccc2nc(-[c-]3cccc3)ccc2c1 [7b, 1-(Quinolin-2-yl)-1′-Vinylferrocene] | 287 ± 31.7 µM | 7.7 ± 0.6% | 2.21 ± 0.02 | 3.32 ± 0.23 µM | 29.8 ± 2.6% | 5.3 ± 0.2 µM | 4.4 ± 0.2 | 3.68 ± 0.29 µM | 89.6 ± 6.2% | 277 ± 14.8 µM | – | – | 3.05 ± 0.18 µM | mixed type of inhibition | 1.92 ± 0.13 µM | 4.58 ± 0.27 µM | mixed type of inhibition | 2.77 ± 0.22 µM
[Fe+2].c1cc[cH-]c1.c1ccc(-c2cccc(-[c-]3cccc3)n2)nc1 [1d] | 152 ± 21.2 µM | 11.1 ± 0.9% | 1.77 ± 0.04 | 7.89 ± 0.63 µM | 20.9 ± 1.6% | 20.6 ± 1.5 µM | 1.00 ± 0.04 | 13.8 ± 1.2 µM | 63.7 ± 5.1% | 632 ± 22.8 µM | – | – | – | – | – | – | – | –
CC(=C(c1ccc(O)cc1)c1ccc(O)cc1)[c-]1cccc1.[Fe+2].c1ccc2nc(-[c-]3cccc3)ccc2c1 [compound 11, 1-(quinolin-2-yl)-1’-{1-[bis(4-hydroxyphenyl)methylene]ethyl}ferrocene, reference compound] | 57.8 ± 8.2 µM | – | – | – | – | – | – | – | – | 139 ± 15.7 µM | 50.9 ± 3.65 µM | – | – | – | – | – | – | –
CCC(=C(c1ccc(O)cc1)c1ccc(O)cc1)[c-]1cccc1.[Fe+2].c1cc[cH-]c1 [Ferrocifenol] | – | – | – | – | – | – | – | – | – | – | 0.9 µM | – | – | – | – | – | – | –
